This is an account of results in PubChem BioAssay (NCI).

Values joined by “and” are separate entries in the source; they are usually repeats but may differ in a detail not shown here. Equal values may be shown once.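 The compound was tested at five concentrations on cells cultured in 96-well plates, with a 48-hour exposure period. Here, GI50 denotes the concentration required for 50% inhibition of growth. TGI: total growth inhibition.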

Common to all, as to test: growth of human tumour cells (NCI), 48 h
The test system of experiment [1] is CCRF-CEM leukemia.
Experiment [2] deals with NCI-H522 lung.
The test system of experiment [3] is NCI/ADR-RES ovarian.
In experiment [4] the test system is PC-3 prostate.
The test system of experiment [5] is RPMI-8226 leukemia.
Experiment [6] relates to SF-295 CNS.
Experiment [7] concerns SK-OV-3 ovarian.
Experiment [8] relates to SN12C renal.
In experiment [9] the test system is SW-620 colon.
Experiment [10] relates to UACC-62 melanoma.

Consider `COc1cc(/C=C2\CC3C4CC=C5C[C@@H](N6CCCC6)CC[C@]5(C)C4CC[C@]3(C)[C@H]2OC(C)=O)ccc1OCCN1CCCCC1` (some centres not stated), for which the GI50 is 0.0346 µM in experiment [1]; 1.67 µM in [2]; 1.74 µM in experiment [3]; 1.54 µM in [4]; 0.0109 µM in [5]; 1.85 µM in experiment [6]. In addition, the GI50 in experiment [7] is 2.15 µM; in experiment [8], 0.775 µM; in experiment [9] it was 0.777 µM; in experiment [10], 1.44 µM. In addition, the TGI in [1] is 0.777 µM; in [2], 3.24 µM; in [3], 3.2 µM; in [4], 3.72 µM; in experiment [5], 0.119 µM; in experiment [6] it was 3.44 µM. The TGI amounted to 4.39 µM in experiment [7], 2.56 µM in [8], 2.09 µM in experiment [9] and 2.81 µM in [10].
Consider `C[C@@]1(c2ncncc2F)NC(=O)c2cc(-c3cn[nH]c3)ccc21`, for which the GI50 is 42.3 µM in [1]; 13.1 µM in experiment [2]; 37.9 µM in experiment [3]; 27.2 µM in experiment [4]; 31 µM in experiment [5]; 29.4 µM in experiment [6]. The GI50 in experiment [7] is 18.5 µM; in experiment [8] it was 26.5 µM; in experiment [9], 6.79 µM; in experiment [10], 18.8 µM. For the same molecule, the TGI in [1] is above 100 µM; in experiment [2] it was above 100 µM; in experiment [3], above 100 µM; in experiment [4], above 100 µM; in experiment [5] it was 95.2 µM; in experiment [6] it was above 100 µM. Besides, the TGI was 76 µM in experiment [7], above 100 µM in experiment [8], above 100 µM in [9] and 70.6 µM in experiment [10].
In the case of `CS(=O)c1ccc(-c2nc(-c3ccc(F)cc3)c(-c3ccncc3)[nH]2)cc1` (configuration not stated), the GI50 in experiment [1] was 27.3 µM; in experiment [2] it was 28.8 µM; in experiment [3], above 100 µM; in experiment [4], 35.6 µM; in [5], 26.2 µM; in [6], 29.1 µM. For the same molecule, the GI50 in experiment [7] was 18.8 µM; in experiment [8], 41.9 µM; in experiment [9], 30 µM; in experiment [10] it was 9.09 µM. Moreover, the TGI in experiment [1] is above 100 µM; in experiment [2], above 85.6 µM; in [3], above 100 µM; in [4], above 89.4 µM; in experiment [5], 83.6 µM; in experiment [6], above 71.6 µM. Moreover, the TGI in [7] was above 82 µM; in [8], above 100 µM; in experiment [9], above 75 µM; in [10], above 66 µM.
With `O=C(Nc1cccc2cccnc12)c1ccc(N2C(=O)[C@@H]3[C@H](C2=O)[C@@H]2C=C[C@H]3C2)cc1`, the GI50 in experiment [1] is 30.1 µM; in [2], 18.4 µM; in experiment [3], 17.6 µM; in experiment [4], 25.1 µM; in experiment [5], 23.2 µM; in experiment [6], 24.9 µM. For the same molecule, the GI50 in experiment [7] was above 62.4 µM; in [8], 28.7 µM; in experiment [9] it was 42 µM; in experiment [10], 22.4 µM. The TGI is above 100 µM in experiment [1]; 54.4 µM in [2]; 81.2 µM in experiment [3]; above 100 µM in experiment [4]; above 88.2 µM in experiment [5]; above 86.9 µM in [6]. In addition, the TGI is above 100 µM in experiment [7], above 100 µM in experiment [8], above 100 µM in [9] and above 86.3 µM in [10].
For `O=C(c1ccco1)c1c(C(F)(F)F)nc2cc(C(F)(F)F)ccc2[n+]1[O-]`, the GI50 was 15.6 µM in [1]; 65.8 µM in experiment [2]; 67.2 µM in experiment [3]; 44.9 µM in experiment [4]; 34.4 µM in experiment [5]; 17.5 µM in [6]. For the same molecule, the GI50 in experiment [7] is 20.3 µM; in [8] it was 43.7 µM; in [9], above 100 µM; in [10], above 100 µM. In addition, the TGI in experiment [1] is 44.3 µM; in experiment [2], above 100 µM; in [3] it was above 100 µM; in experiment [4], above 100 µM; in experiment [5], above 100 µM; in [6] it was 40.4 µM. Besides, the TGI in experiment [7] is 64.6 µM; in experiment [8], above 100 µM; in experiment [9] it was above 100 µM; in experiment [10], above 100 µM.
Regarding `O=C1C=CN(C2OC(CO)C(O)C2O)C(=O)C1` (configuration not stated), the GI50 in experiment [1] is above 625 µM; in experiment [2], > 625 µM and 518 µM; in experiment [5], 23.1 µM; in experiment [6], 116 µM and 59.1 µM; in experiment [7], 580 µM; in [8], 1.34 µM. Besides, the GI50 is 71.4 µM in experiment [9] and 33.3 µM in experiment [10]. The TGI in experiment [1] is above 1710 µM; in experiment [2], above 2320 µM; in experiment [3], 625 µM and > 2500 µM; in [4], above 2500 µM; in experiment [5], 496 µM and > 2500 µM; in experiment [6] it was 625 µM and > 2060 µM. In addition, the TGI was 625 µM and > 2320 µM in experiment [7]; 625 µM and > 2500 µM in experiment [9]; 625 µM and > 1840 µM in [10].
On to `O=C1/C(=C/c2ccc([N+](=O)[O-])s2)Oc2ccccc21`, for which the GI50 in experiment [1] was 0.282 µM; in experiment [2], 0.189 µM; in [3], 1.74 µM; in [4], 0.387 µM; in experiment [5] it was 0.379 µM; in [6], 2.07 µM. The GI50 in experiment [7] was 2.13 µM; in experiment [8], 1.23 µM; in [9], 0.257 µM; in [10] it was 0.667 µM. In addition, the TGI in experiment [1] worked out at 0.874 µM; in experiment [2], 0.382 µM; in experiment [3], 9.25 µM; in experiment [4], 2.26 µM; in [5], 3.57 µM; in [6], 4.63 µM. Besides, the TGI in experiment [7] was determined as 5.19 µM; in experiment [8], 3.04 µM; in [9], 0.725 µM; in experiment [10] it was 1.94 µM.
